Experiments:
[1] = system: WT 39-mer Bcl-2 promoter sequence G-quadruplex (39Bcl-2) (DNA, G4) AGGGGCGGGCGCGGGAGGAAGGGGGCGGGAGCGGGGCTG; assay: ESI-MS; conditions: 50 mM ammonium acetate, 20% methanol, pH about 7, 80 µM DNA, 320 µM porphyrin
[2] = system: WT 39-mer Bcl-2 promoter sequence G-quadruplex (39Bcl-2) (DNA, G4) AGGGGCGGGCGCGGGAGGAAGGGGGCGGGAGCGGGGCTG; assay: ITC; conditions: 130 mM KCl, 20 mM potassium phosphate, 2 mM K4EDTA, pH 7.0, 25 °C

Compound | binding ([1]; some free DNA seen) | K1 ([2]; two equivalent sites) | binding ([1]; no free DNA seen) | K1 ([2]; site 1 of 2 (two equivalent sites per mode))
C[n+]1cccc(-c2c3nc(c(-c4ccc[n+](C)c4)c4ccc([nH]4)c(-c4ccc[n+](C)c4)c4nc(c(-c5ccc[n+](C)c5)c5ccc2[nH]5)C=C4)C=C3)c1 | yes | 2.6 ± 0.5 × 10^5 | – | –
C[n+]1ccccc1-c1c2nc(c(-c3cccc[n+]3C)c3ccc([nH]3)c(-c3cccc[n+]3C)c3nc(c(-c4cccc[n+]4C)c4ccc1[nH]4)C=C3)C=C2 | yes | 0.7 ± 0.5 × 10^5 | – | –
C[n+]1ccc(-c2c3nc(c(-c4cc[n+](C)cc4)c4ccc([nH]4)c(-c4cc[n+](C)cc4)c4nc(c(-c5cc[n+](C)cc5)c5ccc2[nH]5)C=C4)C=C3)cc1 | – | – | yes | 37.0 ± 4.0 × 10^5

From article PMC3748076 (2013)
